Results taken from patent US20240270821A1, “GIP/GLP1/GCG TRI-RECEPTOR AGONISTS AND USES THEREOF” (priority 2023, published 2024).
Where two headings read alike, the source gives them in different places. Starred links: 1 amine or outer side, 2 acyl side, 3 side chain; linkers in the order of their positions; H or OH if unused. Non-standard residues stand in square brackets, D forms with d. Residues, ends and D or L forms follow the SMILES beside them. Groups on a side chain read outwards from the residue. No end group written: not given here. *: point of attachment. C20 diacid = O=C(O)CCCCCCCCCCCCCCCCCCC(=O)*; C18 diacid = O=C(O)CCCCCCCCCCCCCCCCC(=O)*; αMePhe(2-F) = C[C@](N)(Cc1ccccc1F)C(=O)O; γGlu = O=C(O)[C@H](CCC(=O)[*:2])N[*:1]; αMe4Pal = C[C@](N)(Cc1ccncc1)C(=O)O; αMeY = C[C@](N)(Cc1ccc(O)cc1)C(=O)O; αMeF = C[C@](N)(Cc1ccccc1)C(=O)O; 4Pal = N[C@@H](Cc1ccncc1)C(=O)O; αMeL = CC(C)C[C@](C)(N)C(=O)O; αMeS = C[C@](N)(CO)C(=O)O; Orn = NCCC[C@H](N)C(=O)O; AEEA = NCCOCCOCC(=O)O; Aib = CC(C)(N)C(=O)O

How the values were obtained:
Assay type in all cases: cell-based
hGcgR = hGcgR (Homo sapiens, UniProt P47871); experiment: Functional cAMP activation in the presence of 0.1% casein (no HSA); conditions: read-out: Relative cAMP EC50, hGcgR;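 also: intracellular cAMP rise after 30 min at 37 °C, read by HTRF against a cAMP standard curve, scaled from buffer only (0%) to maximal control ligand response (100%)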
hGIPR [1] = molecular target: T1, hGIPR (Homo sapiens, UniProt P48546); experiment: Functional cAMP activity in the presence of 1% HSA; conditions: read-out: cAMP Rel EC50, hGIPR
T1 sequence (P48546 22-466): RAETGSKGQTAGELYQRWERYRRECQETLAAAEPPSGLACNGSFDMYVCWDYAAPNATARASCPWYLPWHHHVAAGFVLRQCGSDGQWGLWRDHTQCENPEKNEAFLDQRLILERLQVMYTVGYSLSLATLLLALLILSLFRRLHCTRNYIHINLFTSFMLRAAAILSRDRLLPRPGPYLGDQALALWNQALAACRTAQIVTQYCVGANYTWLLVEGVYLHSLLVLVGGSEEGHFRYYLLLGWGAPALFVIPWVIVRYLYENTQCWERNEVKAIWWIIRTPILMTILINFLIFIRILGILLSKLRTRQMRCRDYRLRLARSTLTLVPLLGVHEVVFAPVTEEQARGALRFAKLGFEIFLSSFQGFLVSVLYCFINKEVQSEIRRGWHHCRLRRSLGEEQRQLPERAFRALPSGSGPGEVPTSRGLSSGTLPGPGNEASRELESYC

hGLP-1R [2] = molecular target: T2, hGLP-1R (Homo sapiens, UniProt P43220); experiment: Functional cAMP activity in the presence of 1% HSA; conditions: read-out: cAMP Rel EC50, hGLP-1R
hGIPR [3] = molecular target: T1, hGIPR; experiment: Functional cAMP activation in the presence of 0.1% casein (no HSA); conditions: read-out: Relative cAMP EC50, hGIPR;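 as to Relative cAMP EC50, hGIPR: intracellular cAMP rise after 30 min at 37 °C read by HTRF against a standard curve, scaled between buffer alone (0%) and top control ligand concentration (100%), four-parameter fit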;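 as to Relative cAMP EC50, hGLP-1R: intracellular cAMP rise after 30 min at 37 °C read by HTRF, normalized between buffer only (0%) and maximal control ligand (100%), four-parameter variable-slope fit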
hGLP-1R [4] = molecular target: T2, hGLP-1R; experiment: as above; conditions: read-out: Relative cAMP EC50, hGLP-1R
human GcgR = human GcgR (Homo sapiens, UniProt P47871); experiment: Functional cAMP activity in the presence of 1% HSA; conditions: read-out: cAMP Rel EC50, hGcgR
[5] = 0.1% casein, no HSA, geometric mean
[6] = in the presence of 0.1% casein (no HSA), geometric mean

T2 sequence (P43220 24-463): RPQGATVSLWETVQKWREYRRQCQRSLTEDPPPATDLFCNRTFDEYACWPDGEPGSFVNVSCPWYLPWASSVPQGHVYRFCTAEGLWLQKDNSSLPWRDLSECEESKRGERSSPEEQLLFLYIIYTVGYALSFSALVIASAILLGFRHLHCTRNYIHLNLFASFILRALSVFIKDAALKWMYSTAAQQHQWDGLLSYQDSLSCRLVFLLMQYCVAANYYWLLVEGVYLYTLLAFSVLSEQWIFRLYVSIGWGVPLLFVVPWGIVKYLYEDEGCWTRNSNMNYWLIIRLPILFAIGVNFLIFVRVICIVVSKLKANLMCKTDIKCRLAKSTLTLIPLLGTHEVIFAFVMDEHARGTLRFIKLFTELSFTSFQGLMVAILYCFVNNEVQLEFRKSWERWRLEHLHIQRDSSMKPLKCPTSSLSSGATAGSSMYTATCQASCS
Sequence of human GcgR (P47871 26-477): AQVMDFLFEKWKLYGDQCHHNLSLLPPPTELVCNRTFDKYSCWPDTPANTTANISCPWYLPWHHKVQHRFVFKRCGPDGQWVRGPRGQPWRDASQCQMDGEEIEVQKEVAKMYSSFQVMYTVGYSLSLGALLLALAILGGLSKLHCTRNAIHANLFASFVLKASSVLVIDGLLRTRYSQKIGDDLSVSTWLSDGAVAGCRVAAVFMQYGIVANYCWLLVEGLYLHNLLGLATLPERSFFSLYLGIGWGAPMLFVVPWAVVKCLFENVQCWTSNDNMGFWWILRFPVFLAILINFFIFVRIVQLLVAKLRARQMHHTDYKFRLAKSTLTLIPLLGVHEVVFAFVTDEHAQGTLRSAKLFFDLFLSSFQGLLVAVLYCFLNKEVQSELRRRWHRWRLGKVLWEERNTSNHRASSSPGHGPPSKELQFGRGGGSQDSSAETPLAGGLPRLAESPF
Sequence of hGcgR (P47871 26-477): as above

Molecule	EC50 (hGcgR; [5])	EC50 (hGIPR [1])	EC50 (hGLP-1R [2])	EC50 (hGIPR [3]; [5])	EC50 (hGLP-1R [4]; [5])	EC50 (human GcgR)	EC50 (hGcgR; [6])	EC50 (hGIPR [3]; [6])	EC50 (hGLP-1R [4]; [6])	EC50 (hGcgR)	EC50 (hGIPR [3])	EC50 (hGLP-1R [4])
H-Y[Aib]Q[dA]T[αMePhe(2-F)]TSD[4Pal][αMeS]I[αMeL]LD[Orn]K([AEEA-γGlu-C18 diacid])AQ[Aib]EFI[dE][αMeY]LIEGGPSSGAPPPSGGGE-NH2 [Example 1223]	2.61 nM	9.25 nM	40.7 nM	0.0916 nM	0.337 nM	472 nM	–	–	–	–	–	–
H-Y[Aib]QGTFTSD[4Pal]SQ[αMeL]LDKK([AEEA-γGlu-C18 diacid])AQ[αMe4Pal]AFIEYLIE[Aib]GPSSGAPPPSGSEEE-NH2 [Example 898]	–	25.5 nM	584 nM	–	–	770 nM	3.39 nM	0.287 nM	4.62 nM	–	–	–
H-Y[Aib]QGTFTSD[4Pal]SQ[αMeL]LDKK([γGlu-γGlu-C18 diacid])AQ[αMe4Pal]AFIEYLIE[Aib]GPSSGAPPPSGSEE-NH2 [Example 899]	–	15.6 nM	592 nM	–	–	814 nM	4.4 nM	0.133 nM	4.11 nM	–	–	–
CC[C@H](C)[C@H](NC(=O)[C@H](Cc1ccccc1)NC(=O)[C@H](C)NC(=O)C(C)(C)NC(=O)[C@H](CCC(N)=O)NC(=O)[C@H](C)NC(=O)[C@H](CCCCNC(=O)COCCOCCNC(=O)CC[C@H](NC(=O)CCCCCCCCCCCCCCCCC(=O)O)C(=O)O)NC(=O)[C@H](CCCCN)NC(=O)[C@H](CC(=O)O)NC(=O)[C@H](CC(C)C)NC(=O)[C@](C)(CC(C)C)NC(=O)[C@@H](NC(=O)[C@H](CO)NC(=O)[C@H](Cc1ccncc1)NC(=O)[C@H](CC(=O)O)NC(=O)[C@H](CO)NC(=O)[C@@H](NC(=O)[C@](C)(Cc1ccccc1F)NC(=O)[C@@H](NC(=O)CNC(=O)[C@H](CCC(N)=O)NC(=O)C(C)(C)NC(=O)[C@@H](N)Cc1ccc(O)cc1)[C@@H](C)O)[C@@H](C)O)[C@@H](C)CC)C(=O)N[C@@H](CCC(=O)O)C(=O)N[C@@H](Cc1ccc(O)cc1)C(=O)N[C@@H](CC(C)C)C(=O)N[C@@H](CCC(=O)O)C(=O)N[C@@H](CCC(=O)O)C(=O)NCC(=O)NCC(=O)N1CCC[C@H]1C(=O)N[C@@H](CO)C(=O)N[C@@H](CO)C(=O)NCC(=O)N[C@@H](CCC(=O)O)C(=O)N1CCC[C@H]1C(=O)N1CCC[C@H]1C(=O)N1CCC[C@H]1C(=O)N[C@@H](CO)C(N)=O [Example 442] (H-Y[Aib]QGT[αMePhe(2-F)]TSD[4Pal]SI[αMeL]LDKK([AEEA-γGlu-C18 diacid])AQ[Aib]AFIEYLEEGGPSSGEPPPS-NH2; N-terminus assumed)	–	1.81 nM	23.9 nM	–	–	342 nM	–	–	–	5.66 nM	0.0237 nM	0.267 nM
H-Y[Aib]QGTFTSDFS[Orn][αMeL]LDKK([AEEA-γGlu-C18 diacid])AQ[Aib]AFIE[4Pal]LLEGGPSSGAPPPGGS-NH2 [Example 496]	–	60.8 nM	1480 nM	–	–	1500 nM	–	–	–	8.25 nM	0.387 nM	9.69 nM
H-Y[Aib]QGT[αMePhe(2-F)]TSD[4Pal][αMeS]I[αMeL]LD[Orn]K([AEEA-γGlu-C18 diacid])AA[Aib]EFI[dE][αMeY]LIEGGPSSGAPPPSGTEQ-OH [Example 726]	–	1.22 nM	33.3 nM	–	–	226 nM	–	–	–	1.71 nM	0.013 nM	0.247 nM
H-Y[Aib]QGTFTSDFS[Orn][αMeL]LDKK([AEEA-γGlu-C20 diacid])AQ[Aib]AFIEYLLAGGPSSGAPPPSEG-NH2 [Example 60]	–	33 nM	409 nM	–	–	1210 nM	8.96 nM	0.135 nM	1.93 nM	–	–	–
H-Y[Aib]QGT[αMePhe(2-F)]TSD[4Pal][αMeS]I[αMeL]LD[Orn]K([AEEA-γGlu-C18 diacid])AQ[αMe4Pal]EFI[dE][αMeY]LIEGGPPS[Aib][Orn]PPP[Orn]GS-NH2 [Example 1189]	–	0.584 nM	45.4 nM	–	–	248 nM	1.59 nM	0.00597 nM	0.292 nM	–	–	–
H-Y[Aib]QGTFTSD[4Pal]SQ[αMeL]LDKK([AEEA-γGlu-C18 diacid])AQ[αMe4Pal]AFIEYLIAGGPSSGAPPPSGSEE-NH2 [Example 1029]	–	22.3 nM	170 nM	–	–	511 nM	5.35 nM	0.163 nM	1.79 nM	–	–	–
Y[Aib]QGT[αMePhe(2-F)]TSD[4Pal][αMeS]I[αMeL]LD[Orn]K([γGlu-γGlu-C18 diacid])AQ[Aib][Orn]FI[dE][αMeY]LQEGGPSSGEPPPEGAEE-NH2 [Example 587]	–	3.47 nM	31.9 nM	–	–	252 nM	–	–	–	5.38 nM	0.0635 nM	0.611 nM
H-Y[Aib]QGT[αMePhe(2-F)]TSD[4Pal][αMeS]I[αMeL]LD[Orn]K([γGlu-γGlu-C18 diacid])AQ[Aib]NFI[dE][αMeY]LIEGGPSSGEPEPSEG-NH2 [Example 473]	–	1.11 nM	11.4 nM	–	–	311 nM	–	–	–	2.72 nM	0.0101 nM	0.173 nM
H-Y[Aib]QGT[αMePhe(2-F)]TSD[4Pal][αMeS]I[αMeL]LD[Orn]K([AEEA-γGlu-C18 diacid])AQ[Aib]NFIEYLIEGGPSSGEPPPEGE-NH2 [Example 483]	–	1.17 nM	18.2 nM	–	–	231 nM	–	–	–	1.77 nM	0.0133 nM	0.188 nM
H-Y[Aib]QGTFTSD[4Pal]SQ[αMeL]LD[Orn]K([AEEA-γGlu-C18 diacid])AQ[αMe4Pal]AFIE[αMeY]LIE[Aib]GPSSGAPPPSGSEE-NH2 [Example 1108]	–	5.22 nM	76.2 nM	–	–	468 nM	4.96 nM	0.0507 nM	0.752 nM	–	–	–
H-Y[Aib]QGT[αMePhe(2-F)]TSD[4Pal]SI[αMeL]LD[Orn]K([γGlu-γGlu-C18 diacid])AQ[αMe4Pal]EFI[dE][αMeY]LIEGGPSSGAPPPSGE-NH2 [Example 616]	–	0.467 nM	28.9 nM	–	–	734 nM	–	–	–	6.58 nM	0.00727 nM	0.29 nM
H-Y[Aib]QGT[αMePhe(2-F)]TSD[4Pal][αMeS]I[αMeL]LD[Orn]K([AEEA-AEEA-γGlu-C18 diacid])AQ[Aib][Orn]FIEYLIEGGPSSGAPEPSEG-NH2 [Example 492]	–	0.84 nM	9.85 nM	–	–	128 nM	–	–	–	1.35 nM	0.0119 nM	0.146 nM
H-Y[Aib]QGTFTSD[4Pal]SR[αMeL]LDKK([AEEA-γGlu-C18 diacid])AQ[Aib]AFIE[αMeY]LIEGGPSSGAPPPSGS-NH2 [Example 837]	–	20.7 nM	69.6 nM	–	–	2060 nM	7.24 nM	0.209 nM	0.551 nM	–	–	–
H-Y[Aib]QGTFTSD[4Pal]S[Orn][αMeL]LDKK([AEEA-γGlu-C18 diacid])AQ[αMe4Pal]AFIE[αMe4Pal]LIEGGPSSGAPPPSGSEE-NH2 [Example 955]	–	42.3 nM	1380 nM	–	–	366 nM	2.65 nM	0.386 nM	7.74 nM	–	–	–
CC[C@H](C)[C@H](NC(=O)[C@H](Cc1ccccc1)NC(=O)[C@H](CCCN)NC(=O)C(C)(C)NC(=O)[C@H](CCC(N)=O)NC(=O)[C@H](C)NC(=O)[C@H](CCCCNC(=O)COCCOCCNC(=O)CC[C@H](NC(=O)CCCCCCCCCCCCCCCCC(=O)O)C(=O)O)NC(=O)[C@H](CCCN)NC(=O)[C@H](CC(=O)O)NC(=O)[C@H](CC(C)C)NC(=O)[C@](C)(CC(C)C)NC(=O)[C@H](CO)NC(=O)[C@](C)(CO)NC(=O)[C@H](Cc1ccc(O)cc1)NC(=O)[C@H](CC(=O)O)NC(=O)[C@H](CO)NC(=O)[C@@H](NC(=O)[C@](C)(Cc1ccccc1)NC(=O)[C@@H](NC(=O)CNC(=O)[C@H](CCC(N)=O)NC(=O)C(C)(C)NC(=O)[C@@H](N)Cc1ccc(O)cc1)[C@@H](C)O)[C@@H](C)O)C(=O)N[C@H](CCC(=O)O)C(=O)N[C@@](C)(Cc1ccc(O)cc1)C(=O)N[C@@H](CC(C)C)C(=O)N[C@@H](CC(C)C)C(=O)N[C@@H](CCC(=O)O)C(=O)NCC(=O)NCC(=O)N1CCC[C@H]1C(=O)N[C@@H](CO)C(=O)N[C@@H](CO)C(=O)NCC(=O)N[C@@H](CCC(=O)O)C(=O)N1CCC[C@H]1C(=O)N1CCC[C@H]1C(=O)N1CCC[C@H]1C(=O)N[C@@H](CCC(=O)O)C(N)=O [Example 389] (H-Y[Aib]QGT[αMeF]TSDY[αMeS]S[αMeL]LD[Orn]K([AEEA-γGlu-C18 diacid])AQ[Aib][Orn]FI[dE][αMeY]LLEGGPSSGEPPPE-NH2)	–	18.3 nM	18.9 nM	–	–	889 nM	4.03 nM	0.0354 nM	0.134 nM	–	–	–
